Test results published in publication doi:10.1101/2024.05.30.596624v1 (biorxiv, 2024).
≈ marks a conversion by molar mass, not a printed value.

Experiments:
AMPK α1β2γ1 = AMPK α1β2γ1 (Homo sapiens, UniProt O43741+Q13131); assay: Caliper mobility shift kinase assay, FAM-SAMS peptide; format: biochemical
in vitro [1] = details: human, liver microsomes
physchem [2] = details: 1-octanol/phosphate buffer, pH 7.4
physchem [3] = details: aqueous phosphate buffer, pH 7.4, aqueous buffer
in vitro [4] = details: rat, hepatocytes
in vitro [5] = details: human, hepatocytes
HepG2 = assay: cells; details: Homo sapiens, HepG2, read-out: Hu HepG2 EC50
in vitro [6] = details: human, plasma
in vitro [7] = details: human, Caco-2
AMPK α1β1γ1 = AMPK α1β1γ1 (Homo sapiens, UniProt Q13131+Q9Y478); assay: Caliper mobility shift kinase assay, FAM-SAMS peptide; format: biochemical
in vitro [8] = details: mouse, hepatocytes

Sequence of AMPK α1β1γ1 (Q13131 whole entry): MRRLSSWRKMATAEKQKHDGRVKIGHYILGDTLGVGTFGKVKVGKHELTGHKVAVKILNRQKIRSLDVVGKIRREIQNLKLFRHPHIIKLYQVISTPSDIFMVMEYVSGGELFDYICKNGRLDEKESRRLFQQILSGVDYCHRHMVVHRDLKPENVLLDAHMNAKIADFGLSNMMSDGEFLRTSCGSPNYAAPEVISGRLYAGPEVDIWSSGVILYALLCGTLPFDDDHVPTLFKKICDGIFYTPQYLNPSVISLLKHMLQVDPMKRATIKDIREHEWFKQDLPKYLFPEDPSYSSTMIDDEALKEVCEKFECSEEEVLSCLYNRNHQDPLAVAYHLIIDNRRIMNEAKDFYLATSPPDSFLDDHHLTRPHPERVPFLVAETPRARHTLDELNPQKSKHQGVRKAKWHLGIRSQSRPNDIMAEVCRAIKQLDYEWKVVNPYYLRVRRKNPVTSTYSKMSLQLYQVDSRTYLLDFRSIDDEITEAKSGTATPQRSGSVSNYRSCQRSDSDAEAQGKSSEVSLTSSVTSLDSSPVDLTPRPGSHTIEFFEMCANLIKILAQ
Sequence of AMPK α1β1γ1 (Q9Y478 2-270): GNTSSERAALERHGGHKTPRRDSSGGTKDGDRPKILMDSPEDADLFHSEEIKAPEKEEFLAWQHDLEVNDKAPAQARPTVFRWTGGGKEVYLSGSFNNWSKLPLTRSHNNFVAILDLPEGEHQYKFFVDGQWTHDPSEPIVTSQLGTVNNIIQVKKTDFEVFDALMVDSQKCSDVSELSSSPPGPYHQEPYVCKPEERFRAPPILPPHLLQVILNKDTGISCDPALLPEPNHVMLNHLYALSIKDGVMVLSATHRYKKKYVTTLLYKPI
Sequence of AMPK α1β1γ1 (P54619 whole entry partner): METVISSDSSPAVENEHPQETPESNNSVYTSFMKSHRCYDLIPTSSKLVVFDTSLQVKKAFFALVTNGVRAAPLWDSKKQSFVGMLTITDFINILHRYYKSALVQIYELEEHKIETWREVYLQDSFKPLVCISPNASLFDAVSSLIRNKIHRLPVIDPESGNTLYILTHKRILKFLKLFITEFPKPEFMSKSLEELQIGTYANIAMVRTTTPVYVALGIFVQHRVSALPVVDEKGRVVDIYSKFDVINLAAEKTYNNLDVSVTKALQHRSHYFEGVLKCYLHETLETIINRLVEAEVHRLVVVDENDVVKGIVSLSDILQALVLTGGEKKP
Sequence of AMPK α1β2γ1 (Q13131 whole entry): as the sequence (Q13131 whole entry) above
Sequence of AMPK α1β2γ1 (O43741 whole entry): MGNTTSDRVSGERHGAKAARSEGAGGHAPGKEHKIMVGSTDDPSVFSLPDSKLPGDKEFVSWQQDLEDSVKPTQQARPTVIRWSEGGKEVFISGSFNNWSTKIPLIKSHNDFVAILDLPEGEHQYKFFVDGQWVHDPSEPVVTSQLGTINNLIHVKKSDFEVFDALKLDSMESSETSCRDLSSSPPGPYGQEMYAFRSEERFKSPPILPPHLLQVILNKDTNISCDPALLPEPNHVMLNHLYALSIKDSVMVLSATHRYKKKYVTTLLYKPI
Sequence of AMPK α1β2γ1 (P54619 whole entry partner): as the sequence (P54619 whole entry partner) above

EC50 (AMPK α1β2γ1): 63.1 ± 14.7 nM | microsomal CLint (in vitro [1]): < 3 µL/min/mg | logD (physchem [2]): 2.8 | solubility at 27 h (physchem [3]): 8 µM (≈ 4.33 µg/mL) | hepatocyte CLint (in vitro [4]): < 1.4 µL/min/1e6 cells | hepatocyte CLint (in vitro [5]): < 1 µL/min/1e6 cells | EC50 (HepG2): 83.2 nM | fraction unbound (in vitro [6]): 0.037 | Papp (in vitro [7]): 26 ×10⁻⁶ cm/s | EC50 (AMPK α1β1γ1): 20 ± 9.5 nM | hepatocyte CLint (in vitro [8]): 8.6 µL/min/1e6 cells
Compound: CS(C)(=O)=Nc1ccc(-c2ccc(-c3nc4[nH]c(O[C@@H]5CO[C@H]6[C@@H]5OC[C@H]6O)nc4cc3Cl)cc2)cc1 [BI9774]
